Assay results from patent publication US8129417B2, “Substituted octahydrocyclopenta[C]pyrrol-4-amines as calcium channel blockers” (Abbott Laboratories, priority 2008, dated 2012).

The compounds below were run against human Cav2.2 (Homo sapiens, UniProt Q00975) (assay: Assessment of calcium channel activity using FLIPR (Ca2+ influx in IMR32 cells)). Settings: 3 minute pre-incubation with compound (*), 2 μM nifedipine, depolarized with 80 mM KCl.
Assay type: cell-based
Method: (i) In Vitro Methods—Assessment of Calcium Channel Activity Using FLIPR:
The IMR32 cells were maintained in MEM media containing 10% (v/v) FBS, 1% (v/v) antibiotic/antimitotic, 1% (v/v) sodium pyruvate and 1% (v/v) MEM NEAA. Following dissociation in 0.05% (v/v) trypsin/EDTA, cells were seeded into black 1×96-well plates (Corning Cellbind) at a density of 1-1.2×10^5 cells/well and incubated in the maintenance media above for 48 hours at 37° C. […] To determine the IC50 values, the percent inhibition of the compound at each concentration was determined relative to the activity in the absence of inhibitor, and data was fitted using non-linear regression sigmoidal dose response curve analysis with GraphPad Prism®.

Sequence of human Cav2.2 (Q00975 whole entry): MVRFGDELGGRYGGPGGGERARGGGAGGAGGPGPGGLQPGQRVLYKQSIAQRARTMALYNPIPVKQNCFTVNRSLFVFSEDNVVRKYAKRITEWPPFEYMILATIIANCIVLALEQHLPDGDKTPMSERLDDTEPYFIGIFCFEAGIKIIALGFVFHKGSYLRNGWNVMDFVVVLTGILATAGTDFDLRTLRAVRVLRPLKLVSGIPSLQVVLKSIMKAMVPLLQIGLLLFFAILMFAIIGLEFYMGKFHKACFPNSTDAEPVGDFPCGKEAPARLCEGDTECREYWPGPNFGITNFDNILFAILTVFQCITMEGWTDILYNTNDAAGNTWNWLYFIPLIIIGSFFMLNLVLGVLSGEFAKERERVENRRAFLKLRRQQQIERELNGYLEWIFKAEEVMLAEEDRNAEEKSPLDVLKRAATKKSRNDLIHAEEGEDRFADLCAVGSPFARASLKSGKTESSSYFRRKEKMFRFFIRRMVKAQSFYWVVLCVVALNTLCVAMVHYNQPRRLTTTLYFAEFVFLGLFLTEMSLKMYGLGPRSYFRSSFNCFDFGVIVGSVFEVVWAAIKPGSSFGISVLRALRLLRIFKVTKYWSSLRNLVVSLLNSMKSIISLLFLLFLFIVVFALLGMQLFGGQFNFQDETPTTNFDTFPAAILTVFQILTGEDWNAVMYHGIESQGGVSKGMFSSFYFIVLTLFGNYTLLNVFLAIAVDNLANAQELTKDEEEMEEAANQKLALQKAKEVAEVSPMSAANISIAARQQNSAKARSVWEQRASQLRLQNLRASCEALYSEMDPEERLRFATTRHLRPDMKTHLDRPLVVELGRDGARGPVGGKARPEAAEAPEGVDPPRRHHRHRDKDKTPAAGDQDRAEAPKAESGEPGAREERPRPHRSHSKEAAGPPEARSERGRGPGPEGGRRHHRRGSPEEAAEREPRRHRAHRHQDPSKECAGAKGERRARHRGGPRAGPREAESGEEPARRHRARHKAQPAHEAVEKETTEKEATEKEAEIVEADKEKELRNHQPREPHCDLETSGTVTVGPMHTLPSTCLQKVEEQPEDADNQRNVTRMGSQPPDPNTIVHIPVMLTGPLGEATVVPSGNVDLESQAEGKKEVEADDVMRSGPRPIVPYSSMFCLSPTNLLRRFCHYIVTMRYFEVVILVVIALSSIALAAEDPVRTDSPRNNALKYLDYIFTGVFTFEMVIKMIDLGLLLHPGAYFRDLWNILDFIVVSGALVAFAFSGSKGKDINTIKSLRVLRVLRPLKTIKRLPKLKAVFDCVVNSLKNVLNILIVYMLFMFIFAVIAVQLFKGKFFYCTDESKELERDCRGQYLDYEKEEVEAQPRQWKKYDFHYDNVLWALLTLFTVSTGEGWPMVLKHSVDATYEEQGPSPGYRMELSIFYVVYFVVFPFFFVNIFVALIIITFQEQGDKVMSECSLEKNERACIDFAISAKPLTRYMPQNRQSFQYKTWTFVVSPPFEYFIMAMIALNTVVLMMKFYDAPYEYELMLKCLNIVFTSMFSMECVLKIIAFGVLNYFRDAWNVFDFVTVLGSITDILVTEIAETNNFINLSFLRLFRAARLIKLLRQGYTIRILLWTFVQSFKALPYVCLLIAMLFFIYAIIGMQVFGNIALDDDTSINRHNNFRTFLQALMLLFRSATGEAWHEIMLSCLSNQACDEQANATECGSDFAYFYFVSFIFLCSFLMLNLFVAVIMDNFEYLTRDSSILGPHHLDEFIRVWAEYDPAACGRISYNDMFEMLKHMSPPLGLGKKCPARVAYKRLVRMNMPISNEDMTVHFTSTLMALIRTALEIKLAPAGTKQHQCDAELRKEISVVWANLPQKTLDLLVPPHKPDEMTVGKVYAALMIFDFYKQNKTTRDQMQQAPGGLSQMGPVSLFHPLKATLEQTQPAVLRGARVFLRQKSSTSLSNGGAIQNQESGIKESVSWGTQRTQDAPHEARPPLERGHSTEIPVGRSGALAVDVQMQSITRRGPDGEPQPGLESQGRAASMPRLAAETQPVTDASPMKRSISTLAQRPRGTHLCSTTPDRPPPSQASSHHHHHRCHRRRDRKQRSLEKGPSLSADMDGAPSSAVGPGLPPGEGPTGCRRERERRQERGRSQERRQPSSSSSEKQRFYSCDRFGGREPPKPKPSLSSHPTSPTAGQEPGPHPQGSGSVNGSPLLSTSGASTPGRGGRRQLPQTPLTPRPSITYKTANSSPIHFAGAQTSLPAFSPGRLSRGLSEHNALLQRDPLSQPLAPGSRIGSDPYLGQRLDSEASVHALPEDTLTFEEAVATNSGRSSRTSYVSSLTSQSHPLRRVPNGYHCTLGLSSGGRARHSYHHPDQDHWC
Sequence of human Cav2.2 (P54289 25-946 partner limits assumed): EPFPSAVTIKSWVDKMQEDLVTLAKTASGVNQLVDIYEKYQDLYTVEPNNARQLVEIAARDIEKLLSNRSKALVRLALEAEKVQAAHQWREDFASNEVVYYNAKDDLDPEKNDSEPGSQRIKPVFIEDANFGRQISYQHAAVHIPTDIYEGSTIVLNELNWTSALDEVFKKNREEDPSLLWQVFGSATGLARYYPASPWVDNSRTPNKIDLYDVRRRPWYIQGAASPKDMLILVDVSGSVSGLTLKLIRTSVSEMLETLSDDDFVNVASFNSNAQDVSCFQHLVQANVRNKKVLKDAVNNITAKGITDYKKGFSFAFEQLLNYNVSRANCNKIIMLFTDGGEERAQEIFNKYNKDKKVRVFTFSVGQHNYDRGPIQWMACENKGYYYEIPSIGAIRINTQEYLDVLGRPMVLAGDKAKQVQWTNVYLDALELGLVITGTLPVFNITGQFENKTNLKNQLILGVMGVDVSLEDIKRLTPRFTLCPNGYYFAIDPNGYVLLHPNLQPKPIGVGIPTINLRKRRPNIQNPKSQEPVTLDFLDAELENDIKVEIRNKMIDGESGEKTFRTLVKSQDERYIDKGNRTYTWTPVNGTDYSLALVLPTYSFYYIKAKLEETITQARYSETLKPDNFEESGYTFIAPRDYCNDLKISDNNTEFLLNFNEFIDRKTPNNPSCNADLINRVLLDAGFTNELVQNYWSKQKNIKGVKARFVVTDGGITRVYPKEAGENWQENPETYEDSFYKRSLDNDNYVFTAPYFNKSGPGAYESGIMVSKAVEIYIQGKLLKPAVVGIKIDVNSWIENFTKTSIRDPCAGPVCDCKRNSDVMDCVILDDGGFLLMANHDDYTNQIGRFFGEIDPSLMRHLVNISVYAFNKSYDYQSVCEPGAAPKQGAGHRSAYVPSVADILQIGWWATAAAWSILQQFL
Sequence of human Cav2.2 (P54289 947-1103 partner limits assumed): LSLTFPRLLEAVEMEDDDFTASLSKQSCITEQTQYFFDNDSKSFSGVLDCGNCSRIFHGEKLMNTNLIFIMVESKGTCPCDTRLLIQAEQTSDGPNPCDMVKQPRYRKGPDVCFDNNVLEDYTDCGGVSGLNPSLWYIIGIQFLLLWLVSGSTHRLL
Sequence of human Cav2.2 (P54284 whole entry partner): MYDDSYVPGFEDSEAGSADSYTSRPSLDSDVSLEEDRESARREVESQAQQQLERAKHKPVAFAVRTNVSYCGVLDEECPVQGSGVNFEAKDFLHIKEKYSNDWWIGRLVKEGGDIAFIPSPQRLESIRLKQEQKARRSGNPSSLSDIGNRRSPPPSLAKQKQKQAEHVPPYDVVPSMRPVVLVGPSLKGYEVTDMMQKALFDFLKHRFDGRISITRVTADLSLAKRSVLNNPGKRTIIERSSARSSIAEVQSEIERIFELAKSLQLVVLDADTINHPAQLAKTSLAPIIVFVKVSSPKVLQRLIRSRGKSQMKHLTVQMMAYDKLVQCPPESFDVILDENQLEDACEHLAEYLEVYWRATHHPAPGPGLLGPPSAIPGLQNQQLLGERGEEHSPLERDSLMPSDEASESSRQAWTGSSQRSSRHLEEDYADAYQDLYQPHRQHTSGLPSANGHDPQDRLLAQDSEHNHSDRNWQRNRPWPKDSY

| IC50 [µM] | Compound |
| --- | --- |
| 5.6 | CC(C)(C)C(Cc1ccccc1)C(=O)N[C@@H]1CC[C@H]2CN(Cc3ccccc3)C[C@H]21 (stereo partly drawn) [Example 29, 2-benzyl-N-[(3aS,4R,6aR)-2-benzyloctahydrocyclopenta[c]pyrrol-4-yl]-3,3-dimethylbutanamide] |
| 1.7 | CCC(CC)C(C(=O)N[C@H]1CC[C@@H]2CN(Cc3ccccc3)C[C@@H]21)c1ccccc1 (stereo partly drawn) [Example 44, N-[(3aR,4S,6aS)-2-benzyloctahydrocyclopenta[c]pyrrol-4-yl]-3-ethyl-2-phenylpentanamide] |
| 15.6 | CC(C)(C(=O)N[C@H]1CC[C@@H]2CN(Cc3ccccc3)C[C@@H]21)c1ccccc1 [Example 47, N-[(3aR,4S,6aS)-2-benzyloctahydrocyclopenta[c]pyrrol-4-yl]-2-methyl-2-phenylpropanamide] |
| 10.5 | O=C(N[C@H]1CC[C@@H]2CN(Cc3ccccc3)C[C@@H]21)C1(c2ccccc2)CC1 [Example 48, N-[(3aR,4S,6aS)-2-benzyloctahydrocyclopenta[c]pyrrol-4-yl]-1-phenylcyclopropanecarboxamide] |
| 4.6 | CC(C)(C)C(Cc1ccccc1)C(=O)N[C@H]1CC[C@@H]2CN(Cc3ccccc3)C[C@@H]21 (stereo partly drawn) [Example 49, 2-benzyl-N-[(3aR,4S,6aS)-2-benzyloctahydrocyclopenta[c]pyrrol-4-yl]-3,3-dimethylbutanamide] |
| 5 | O=C(N[C@H]1CC[C@@H]2CN(Cc3ccccc3)C[C@@H]21)C(Cc1ccccc1)c1ccccc1 (stereo partly drawn) [Example 50, N-[(3aR,4S,6aS)-2-benzyloctahydrocyclopenta[c]pyrrol-4-yl]-2,3-diphenylpropanamide] |
| 15.2 | CC(Cc1ccccc1)C(=O)N[C@H]1CC[C@@H]2CN(Cc3ccccc3)C[C@@H]21 (stereo partly drawn) [Example 51, N-[(3aR,4S,6aS)-2-benzyloctahydrocyclopenta[c]pyrrol-4-yl]-2-methyl-3-phenylpropanamide] |
| 5.3 | CC(C)C(C(=O)N[C@H]1CC[C@@H]2CN(Cc3cccc(C#N)c3)C[C@@H]21)c1ccccc1 (stereo partly drawn) [Example 97, N-[(3aR,4S,6aS)-2-(3-cyanobenzyl)octahydrocyclopenta[c]pyrrol-4-yl]-3-methyl-2-phenylbutanamide] |

More lines, now with the values behind:

| Compound | IC50 [µM] |
| --- | --- |
| O=C(N[C@H]1CC[C@@H]2CN(Cc3ccccc3)C[C@@H]21)C(C1CCCCC1)C1CCCCC1 [Example 40, N-[(3aR,4S,6aS)-2-benzyloctahydrocyclopenta[c]pyrrol-4-yl]-2,2-dicyclohexylacetamide] | 3.6 |
| O=C(N[C@H]1CC[C@@H]2CN(Cc3ccccc3)C[C@@H]21)C1(c2ccccc2)CCCCC1 [Example 46, N-[(3aR,4S,6aS)-2-benzyloctahydrocyclopenta[c]pyrrol-4-yl]-1-phenylcyclohexanecarboxamide] | 3.1 |
| O=C(N[C@@H]1CC[C@H]2CNC[C@H]21)C(C1CCCCC1)C1CCCCC1 [Example 74, 2,2-dicyclohexyl-N-[(3aS,4R,6aR)-octahydrocyclopenta[c]pyrrol-4-yl]acetamide] | 11.2 |
| COc1ccc(CN2C[C@H]3CC[C@H](NC(=O)C(c4ccccc4)C(C)C)[C@H]3C2)cc1 (stereo partly drawn) [Example 96, N-[(3aR,4S,6aS)-2-(4-methoxybenzyl)octahydrocyclopenta[c]pyrrol-4-yl]-3-methyl-2-phenylbutanamide] | 2.4 |
| CC(C)C(C(=O)N[C@H]1CC[C@@H]2CN(Cc3ccc(C(F)(F)F)cc3)C[C@@H]21)c1ccccc1 (stereo partly drawn) [Example 98, 3-methyl-2-phenyl-N-{(3aR,4S,6aS)-2-[4-(trifluoromethyl)benzyl]octahydrocyclopenta[c]pyrrol-4-yl}butanamide] | 4.9 |
| CC(C)C(C(=O)N[C@H]1CC[C@@H]2CN(Cc3ccccc3C(F)(F)F)C[C@@H]21)c1ccccc1 (stereo partly drawn) [Example 99, 3-methyl-2-phenyl-N-{(3aR,4S,6aS)-2-[2-(trifluoromethyl)benzyl]octahydrocyclopenta[c]pyrrol-4-yl}butanamide] | 4.8 |
| CC(C)C(C(=O)N[C@H]1CC[C@@H]2CN(Cc3ccc(F)c(C(F)(F)F)c3)C[C@@H]21)c1ccccc1 (stereo partly drawn) [Example 100, N-{(3aR,4S,6aS)-2-[4-fluoro-3-(trifluoromethyl)benzyl]octahydrocyclopenta[c]pyrrol-4-yl}-3-methyl-2-phenylbutanamide] | 4.2 |

Same assay, conditions: 60 minute pre-incubation with compound, 2 μM nifedipine, depolarized with 80 mM KCl

| IC50 [µM] | Compound |
| --- | --- |
| 0.8 | O=C(N[C@H]1CC[C@H]2CN(Cc3ccccc3F)C[C@H]21)C(C1CCCCC1)C1CCCCC1 [Example 55, 2,2-dicyclohexyl-N-[(3aS,4S,6aR)-2-(2-fluorobenzyl)octahydrocyclopenta[c]pyrrol-4-yl]acetamide] |
| 1 | O=C(N[C@H]1CC[C@H]2CN(Cc3ccc(F)cc3)C[C@H]21)C(C1CCCCC1)C1CCCCC1 [Example 56, 2,2-dicyclohexyl-N-[(3aS,4S,6aR)-2-(4-fluorobenzyl)octahydrocyclopenta[c]pyrrol-4-yl]acetamide] |
| 1.5 | O=C(N[C@H]1CC[C@H]2CN(Cc3ccccc3C(F)(F)F)C[C@H]21)C(C1CCCCC1)C1CCCCC1 [Example 60, 2,2-dicyclohexyl-N-{(3aS,4S,6aR)-2-[2-(trifluoromethyl)benzyl]octahydrocyclopenta[c]pyrrol-4-yl}acetamide] |
| 1.5 | Cc1cccc(CN2C[C@@H]3CC[C@H](NC(=O)C(C4CCCCC4)C4CCCCC4)[C@@H]3C2)c1 [Example 61, 2,2-dicyclohexyl-N-[(3aS,4S,6aR)-2-(3-methylbenzyl)octahydrocyclopenta[c]pyrrol-4-yl]acetamide] |
| 0.6 | O=C(N[C@H]1CC[C@H]2CN(Cc3cccc(OC(F)(F)F)c3)C[C@H]21)C(C1CCCCC1)C1CCCCC1 [Example 63, 2,2-dicyclohexyl-N-{(3aS,4S,6aR)-2-[3-(trifluoromethoxy)benzyl]octahydrocyclopenta[c]pyrrol-4-yl}acetamide] |
| 1.3 | O=C(N[C@H]1CC[C@H]2CN(Cc3cccc(F)c3)C[C@H]21)C(C1CCCCC1)C1CCCCC1 [Example 64, 2,2-dicyclohexyl-N-[(3aS,4S,6aR)-2-(3-fluorobenzyl)octahydrocyclopenta[c]pyrrol-4-yl]acetamide] |
| 4.5 | O=C(N[C@H]1CC[C@H]2CN(CCC(c3ccc(F)cc3)c3ccc(F)cc3)C[C@H]21)C(C1CCCCC1)C1CCCCC1 [Example 65, N-{(3aS,4S,6aR)-2-[3,3-bis(4-fluorophenyl)propyl]octahydrocyclopenta[c]pyrrol-4-yl}-2,2-dicyclohexylacetamide] |
| 0.9 | O=C(N[C@H]1CC[C@H]2CN(CCCCCC(c3ccc(F)cc3)c3ccc(F)cc3)C[C@H]21)C(C1CCCCC1)C1CCCCC1 [Example 66, N-{(3aS,4S,6aR)-2-[6,6-bis(4-fluorophenyl)hexyl]octahydrocyclopenta[c]pyrrol-4-yl}-2,2-dicyclohexylacetamide] |
| 1.7 | O=C(N[C@H]1CC[C@H]2CN(CCCc3cccc(F)c3)C[C@H]21)C(C1CCCCC1)C1CCCCC1 [Example 68, 2,2-dicyclohexyl-N-{(3aS,4S,6aR)-2-[3-(3-fluorophenyl)propyl]octahydrocyclopenta[c]pyrrol-4-yl}acetamide] |
| 1.2 | O=C(N[C@H]1CC[C@H]2CN(CCCc3ccc(F)cc3)C[C@H]21)C(C1CCCCC1)C1CCCCC1 [Example 71, 2,2-dicyclohexyl-N-{(3aS,4S,6aR)-2-[3-(4-fluorophenyl)propyl]octahydrocyclopenta[c]pyrrol-4-yl}acetamide] |
| 0.4 | O=C(N[C@@H]1CC[C@H]2CN(CCCCCC(c3ccc(F)cc3)c3ccc(F)cc3)C[C@H]21)C(C1CCCCC1)C1CCCCC1 [Example 78, N-{(3aS,4R,6aR)-2-[6,6-bis(4-fluorophenyl)hexyl]octahydrocyclopenta[c]pyrrol-4-yl}-2,2-dicyclohexylacetamide] |

Same assay, conditions: IMR-32, @ 10 μM, 3 minute pre-incubation (*), read-out: percent inhibition

| inhibition at 10 µM [%] | Compound |
| --- | --- |
| 44 | CC[C@@H](C(=O)N[C@H]1CC[C@@H]2CN(Cc3ccccc3)C[C@@H]21)c1ccccc1 [Example 36, (2R)—N-[(3aR,4S,6aS)-2-benzyloctahydrocyclopenta[c]pyrrol-4-yl]-2-phenylbutanamide] |
| 15 | C[C@@H](C(=O)N[C@H]1CC[C@@H]2CN(Cc3ccccc3)C[C@@H]21)c1ccccc1 [Example 37, (2R)—N-[(3aR,4S,6aS)-2-benzyloctahydrocyclopenta[c]pyrrol-4-yl]-2-phenylpropanamide] |
| 27 | C[C@H](C(=O)N[C@H]1CC[C@@H]2CN(Cc3ccccc3)C[C@@H]21)c1ccccc1 [Example 38, (2S)—N-[(3aR,4S,6aS)-2-benzyloctahydrocyclopenta[c]pyrrol-4-yl]-2-phenylpropanamide] |
| 92 | CC(C)Cc1ccc([C@H](C)C(=O)N[C@H]2CC[C@@H]3CN(Cc4ccccc4)C[C@@H]32)cc1 [Example 39, (2S)—N-[(3aR,4S,6aS)-2-benzyloctahydrocyclopenta[c]pyrrol-4-yl]-2-(4-isobutylphenyl)propanamide] |
| 56 | O=C(N[C@H]1CC[C@@H]2CN(Cc3ccccc3)C[C@@H]21)C(c1ccccc1)C1CC1 (stereo partly drawn) [Example 41, N-[(3aR,4S,6aS)-2-benzyloctahydrocyclopenta[c]pyrrol-4-yl]-2-cyclopropyl-2-phenylacetamide] |
| 5.8 | CC(C)C(C(=O)N[C@H]1CC[C@@H]2CN(C)C[C@@H]21)c1ccccc1 (stereo partly drawn) [Example 84, 3-methyl-N-[(3aR,4S,6aS)-2-methyloctahydrocyclopenta[c]pyrrol-4-yl]-2-phenylbutanamide] |
| 83 | COc1cccc(CN2C[C@H]3CC[C@H](NC(=O)C(c4ccccc4)C(C)C)[C@H]3C2)c1 (stereo partly drawn) [Example 90, N-[(3aR,4S,6aS)-2-(3-methoxybenzyl)octahydrocyclopenta[c]pyrrol-4-yl]-3-methyl-2-phenylbutanamide] |
